Like-named read-outs stand apart in the source and are kept apart here.
Key:
Aedes aegypti = test: Arm-in-cage repellent/deterrent bioassay on exposed human forearm (modified WHO protocol), Aedes aegypti; assay type: in vivo; settings: for pest or weed control at 0.1 mg/cm2 / pest or weed control at 0.5 mg/cm2: Aedes aegypti, topical, (C-T)/C x 100 at time of failure, read-out: Percent repellence
Description: (§1) Candidate repellents and deterrents were bioassayed according to a modified protocol from the World Health Organization (1996). At least 1 hour prior to each bioassay, 75 host-seeking non blood-fed, nulliparous, 5- to 8-day-old female Aedes aegypti, Anopheles gambiae or Culex quinquefasciatus were placed into a wood-framed cage (26.5 cm on each side and 42.5 cm high) with a wooden floor, screened mesh sides and top, and a clear acrylic front fitted with a cotton stockinette sleeve (10 cm diameter). The test subject's arm was covered with an elbow-length polyethylene glove with an excised patch (16.6 cm long, 6 cm wide) to expose the ventral forearm of the test subject. Candidate deterrents were formulated in mineral (paraffin) oil and applied to the exposed forearm 5 min prior to inserting the arm into the cage. The inserted arm remained in the cage for 3 min every 30 min. Prior to each 3-min bioassay period, the hand of the untreated arm was inserted into the cage to ascertain that it received 10 bites within 30 sec as an indication of “biting pressure”.
(§2) The bioassay was terminated when the treated arm received ≧2 bites in one 3-min bioassay period or one bite in each of two consecutive bioassay periods. The time elapsed from experiment initiation to first bite was recorded as deterrent failure or complete protection time.
(§3) N,N-diethyl-m-toluamide formulated in ethanol at a corresponding dose served as a positive control, and mineral oil by itself served as a negative control. On each day, only one candidate compound was tested, ensuring that any residual material in the chamber had disappeared before the next bioassay.
To determine the repellence and deterrence of 8-allylsulfanyloctan-1-ol against Aedes aegypti, a 5%, 10% or 25% formulation of 8-allylsulfanyloctan-1-ol in mineral oil was applied in Experiments 1-3 at a dose of 1.5 mg (total composition) per cm^2 to the skin of the test person, and was bioassayed according to the protocol described under EXAMPLE 2. In Experiment 4, mineral oil by itself served as a negative control and was bioassayed at the same dose (1.5 mg per cm^2) as in Experiments 1-3. Each of Experiments 1-4 was replicated four times.
To compare the repellence and deterrence against Aedes aegypti caused by 8-allylsulfanyloctan-1-ol as a single active ingredient and by 8-allylsulfanyloctan-1-ol in combination with vanillin as a second active ingredient, we tested a 6.7% emulsion of vanillin (Experiment 14), a 6.7% emulsion of 8-allylsulfanyloctan-1-ol (Experiment 15), and a 13.4% emulsion of 8-allylsulfanyloctan-1-ol plus vanillin (1:1 ratio) (Experiment 16). 8-Allylsulfanyloctan-1-ol and vanillin were formulated in Emulsion No. 1 (see EXAMPLE 9). In each of Experiments […], test stimuli were applied at a dose of 1.5 mg per cm^2 to the skin of the test person, and were bioassayed according to the protocol described under EXAMPLE 2. In Experiment 17, Emulsion No. 1 served as a positive control and was tested at the same dose (1.5 mg per cm^2) as in Experiments 14-16.
To be able to compare the repellence and deterrence caused by N,N-diethyl-m-toluamide and by 8-allylsulfanyloctan-1-ol plus vanillin in Emulsion No. 1 (EXAMPLE 9), Experiment 26 tested a 6.7% formulation of N,N-diethyl-m-toluamide in ethanol (the best formulant for DEET) for protection from bites by Aedes egypti. In each replicate, a dose of 1.5 mg per […] was applied to the skin of the test person and bioassayed according to the protocol described under EXAMPLE 2.
To be able to further compare the deterrence caused by N,N-diethyl-m-toluamide with that caused by 8-allylsulfanyloctan-1-ol plus vanillin, Experiment 27 tested a 10.4% formulation of N,N-diethyl-m-toluamide in ethanol, and Experiment 28 tested 8-allylsulfanyloctan-1-ol (10.4%) plus vanillin (7.9%) in Emulsion No. 2 (EXAMPLE 10). […]

mosquitoes = test: General bioassay procedure with garlic oil, its components and fractions (mosquito species not given); assay type: in vivo
Description: as §1, §2, §3
Garlic oil (Allium sativum—Mexico; Clearwater Soap Works, Box 1775 RR1, Clearwater, BC V0E 1N0, Canada) was formulated in mineral oil and tested using the general bioassay procedure described in EXAMPLE 2 at a dose of 0.1 mg per cm^2 of arm surface. It expressed repellence and deterrence for ˜30 min.
Some of the 10 components in FIG. 1 were bioassayed singly (see general bioassay procedure) and in various combinations, all of which were as deterrent to mosquitoes as garlic oil.
To determine the most deterrent component(s) in garlic oil, it was fractionated by HPLC into four fractions, each containing one or more of the EAD-active components (compounds 1-10 in FIG. 1 and 11-14 in TABLE 2). Each fraction was then bioassayed and shown to be similarly effective in repelling and deterring mosquitoes.
(§4) Components with high molecular weight (>250 daltons) are advantageous in that they: 1) dissipate slowly from treated surfaces; 2) provide long-lasting protection against mosquitoes and 3) convey little, if any, offensive smell. The relative abundance of such components was enhanced by treating garlic oil under vacuum, thus stripping away lower-boiling components. In GC-EAD analyses of the high-boiling residue, four components elicited responses from mosquito antennae.

[1] = tested on: male or female Aedes aegypti antennae; test: Coupled gas chromatographic-electroantennographic detection (GC-EAD) of garlic oil extract
Description: FIG. 1 illustrates flame ionization detector (FID) and electroantennograhic detector (EAD: male or female Aedes aegypti antennae) responses to aliquots of the low boiling temperature portion of garlic oil extract. Chromatography: Hewlett Packard (HP) gas chromatograph equipped with a fused silica column (30 m×0.32 mm ID) coated with DB-5; injector and detector temperature: 250° C.; temperature program: 50° C.
Aliquots of garlic oil extracts were then subjected to coupled gas chromatographic-electroantennographic detection (GC-EAD) analysis. Fourteen components (10 shown in FIG. 1) elicited responses from female or male mosquito antennae. Some of these components were isolated by high-performance liquid chromatography (HPLC) for identification by nuclear magnetic resonance spectroscopy (NMR). Other components were identified (compounds 11-14 in TABLE 2) by coupled GC-mass spectrometry and by retention index calculations. […] Four of the 10 components in FIG. 1 were tentatively identified by comparing their mass spectra and retention indices with those reported in the literature (Block et al. 1998).
as §4

Anopheles gambiae = test: Arm-in-cage repellent/deterrent bioassay on exposed human forearm (modified WHO protocol), Anopheles gambiae; assay type: in vivo
Description: as §1, §2, §3
(§5) To determine the repellence and deterrence of 8-allylsulfanyloctan-1-ol against Anopheles gambiae, a 2%, 5% or a 10% formulation of 8-allylsulfanyloctan-1-ol in mineral oil was applied in Experiments 5-7 at a dose of 1.5 mg per cm^2 to the skin of the test person, and was bioassayed according to the protocol described under EXAMPLE 2. In Experiment 8, mineral oil by itself served as a negative control and was tested at the same dose (1.5 mg per cm^2) as in Experiments 5-7. Each of Experiments 5-8 was replicated 4 times.
To be able to compare the repellence and deterrence caused N,N-diethyl-m-toluamide (DEET), and by 8-allylsulfanyloctan-1-ol, Experiment 13 tested a 2% formulation of N,N-diethyl-m-toluamide in ethanol (the best formulant for this compound) for protection from bites by Anopheles gambiae. A dose of 1.5 mg per cm^2 was applied to the skin of the test person and bioassayed according to the protocol described under EXAMPLE 2.
To compare the repellence and deterrence against Anopheles gambiae caused by 8-allyl-sulfanyloctan-1-ol as a single active ingredient and by 8-allylsulfanyloctan-1-ol in combination with vanillin as a second active ingredient, we tested a 6.7% emulsion of vanillin (Experiment 18), a 6.7-% emulsion of 8-allylsulfanyl-octan-1-ol (Experiment 19) and a 13.4% emulsion of 8-allylsulfanyloctan-1-ol plus vanillin (1:1 ratio) (Experiment 20). 8-Allylsulfanyloctan-1-ol and vanillin were formulated in Emulsion No. 1 (see EXAMPLE 9). In each of Experiments 18-20, test stimuli were applied at a dose of 1.5 mg per cm^2 to the skin of the test person, and were bioassayed according to the protocol described under EXAMPLE 2. In Experiment 21, Emulsion No. 1 served as a positive control and was tested at the same dose (1.5 mg per cm^2) as in experiments 18-20. Each of Experiments 18-21 was replicated three times.

Culex quinquefasciatus = test: Arm-in-cage repellent/deterrent bioassay on exposed human forearm (modified WHO protocol), Culex quinquefasciatus; assay type: in vivo; settings: 6.7% single active in Emulsion No. 1 (FIG. 9 legend: 2.0%), 1.5 mg per cm^2, Experiments 22, 23
Description: as §1, §2, §3
as §5, with “Culex quinquefasciatus,” for “Anopheles gambiae,”, “2% and” for “2%,”, “9-11” for “5-7”, “12,” for “8,”, “[…].” for “5-7.”, “9-11” for “5-8”
To compare the repellence and deterrence against Culex quinquefasciatus caused by 8-allylsulfanyloctan-1-ol as a single active ingredient and by 8-allylsulfanyloctan-1-ol in combination with vanillin as a second active ingredient, we tested a 6.7% emulsion of vanillin (Experiment 22), a 6.7% emulsion of 8-allylsulfanyloctan-1-ol (Experiment 23) and a 13.4% emulsion of 8-allylsulfanyloctan-1-ol plus vanillin (1:1 ratio) (Experiment 24). 8-Allylsulfanyloctan-1-ol and vanillin were formulated in Emulsion No. 1 (see EXAMPLE 9). In each of Experiments […], test stimuli were applied at a dose of 1.5 mg per cm^2 to the skin of the test person, and were bioassayed according to the protocol described under EXAMPLE 2. In Experiment 25, Emulsion No. 1 served as a positive control and was tested at the same dose (1.5 mg per cm^2) as in Experiments 22-24. Each of Experiments 22-25 was replicated three times.

[2] = Dosage >0.1 mg/cm^2 (so in the source)
[3] = Dosage 0.1 mg/cm^2, 0 = immediate failure

| Compound | pest or weed control at 0.1 mg/cm2 (Aedes aegypti; Dosage 0.1 mg/cm^2) [%] | Failure time (Aedes aegypti; [3]) [min] | pest or weed control at 0.5 mg/cm2 (Aedes aegypti; Dosage 0.5 mg/cm^2) [%] | Failure time (Aedes aegypti; Dosage 0.5 mg/cm^2) [min] | also measured |
| --- | --- | --- | --- | --- | --- |
| C=CCSSCCCSSCC=C [Compound 11, 4,5,9,10-tetrathiatrideca-1,12-diene] | 85 | 0 | – | – | pest or weed control at 0.1 mg/cm2 (Aedes aegypti; [2]): 92%; Failure time (Aedes aegypti; [2]): 67.7 min; repellent and deterrent effect in bioassays (in words) (mosquitoes): strong repellent and deterrent effect; electroantennographic (EAD) response of mosquito antennae [1]: Antennal stimulatory |
| C=CCSSCC1CCC=CS1 (centres unmarked) [Compound 13, 2-(2,3-dithia-5-hexenyl)-3,4-dihydro-2(H)-thiopyran] | – | – | – | – | repellent and deterrent effect in bioassays (in words) (mosquitoes): strong repellent and deterrent effect; electroantennographic (EAD) response of mosquito antennae [1]: Antennal stimulatory |
| C=CCSSCC1CC=CSC1 (centres unmarked) [Compound 14, 3-(2,3-dithia-5-hexenyl)-3,4-dihydro-2(H)-thiopyran] | – | – | – | – | repellent and deterrent effect in bioassays (in words) (mosquitoes): strong repellent and deterrent effect; electroantennographic (EAD) response of mosquito antennae [1]: Antennal stimulatory |
| C=CCSSc1ccccc1SSCC=C [Compound 15, 1,2-bis-(1,2-dithia-4-pentenyl)-benzene] | 92 | 34 | – | – | – |
| C=CCSSC/C=C/c1ccccc1 [Compound 16, (E)-4,5-dithia-1,7-octadien-1-yl-benzene] | 89 | 35 | 92 | 36 | – |
| C=CCSCCCSCC=C [Compound 17, 4,8-dithiaundeca-1,10-diene] | 89 | 0 | 97 | 36 | – |
| C=CCSCCCCCCSCC=C [Compound 18, 4,11-dithiatetradeca-1,13-diene] | – | – | 93 | 67 | – |
| C=CCSCCCCCCCCSCC=C [Compound 19, 4,13-dithiahexadeca-1,15-diene] | 93 | 0 | 97 | 102 | – |
| C=CCOCCCCCCCCCCOCC=C [Compound 20, 1,10-bis-allyloxy-decane] | 81 | 0 | – | – | had any repellence or deterrence in bioassays (Aedes aegypti; see TABLE 2, 0.1 mg/cm^2): neither |
| C=CCSCCCCCCCCCO [Compound 22, 9-allylsulfanylnonan-1-ol] | – | – | – | – | Failure time (Aedes aegypti; Dosage 0.05 mg/cm^2): 33 min |
| C=CCSCCCCCCC(C)O (centres unmarked) [Compound 23, 8-allylsulfanyloctan-2-ol] | – | – | – | – | Failure time (Aedes aegypti; Dosage 0.05 mg/cm^2): 99 min |
| CCN(CC)C(=O)c1cccc(C)c1 [N,N-diethyl-m-toluamide, reference compound] | – | – | – | – | protection from bites, average duration (Aedes aegypti; 6.7% formulation in ethanol, 1.5 mg per cm^2, Experiment 26): 197 min; protection from bites, average duration (Aedes aegypti; 10.4% formulation in ethanol, 1.5 mg per cm^2, Experiment 27): 231 min; duration of protection relative to 2% 8-allylsulfanyloctan-1-ol (297 min) (Anopheles gambiae; 2% DEET in ethanol vs 2% 8-allylsulfanyloctan-1-ol in mineral oil): one sixth; protection from bites, average duration (Anopheles gambiae; 2% formulation in ethanol, 1.5 mg per cm^2, Experiment 13): 66 min |
| COc1cc(C=O)ccc1O [vanillin] | – | – | – | – | protection from bites, average duration (Aedes aegypti; 6.7% single active in Emulsion No. 1, 1.5 mg per cm^2, Experiments 14, 15): 44 min; protection from bites, average duration (Anopheles gambiae; 6.7% single active in Emulsion No. 1 (FIG. 8 legend: 2.0%), 1.5 mg per cm^2, Experiments 18, 19): 110 min; protection from bites, average duration (Culex quinquefasciatus): 88 min |

Source: US8889731B2, “Compounds, compositions and methods for repelling blood-feeding arthropods and deterring their landing and feeding” (Contech Enterprises Inc., priority 2007, dated 2014)
